Measurements published in PMC9607353, “Combined In Silico and In Vitro Evidence Supporting an Aurora A Kinase Inhibitory Role of the Anti-Viral Drug Rilpivirine and an Anti-Proliferative Influence on Cancer Cells” (Pharmaceuticals, 2022).

Legend:
Assay in all cases: kinase activity assay (ADP-Glo or radioisotope-based), dose-response; Ki from IC50 by Cheng-Prusoff
Assay type in all cases: biochemical
Aurora A kinase = target: T1, Aurora A kinase (Homo sapiens, UniProt O14965)
T1 construct: gene AURKA
T1 sequence (O14965 1-403): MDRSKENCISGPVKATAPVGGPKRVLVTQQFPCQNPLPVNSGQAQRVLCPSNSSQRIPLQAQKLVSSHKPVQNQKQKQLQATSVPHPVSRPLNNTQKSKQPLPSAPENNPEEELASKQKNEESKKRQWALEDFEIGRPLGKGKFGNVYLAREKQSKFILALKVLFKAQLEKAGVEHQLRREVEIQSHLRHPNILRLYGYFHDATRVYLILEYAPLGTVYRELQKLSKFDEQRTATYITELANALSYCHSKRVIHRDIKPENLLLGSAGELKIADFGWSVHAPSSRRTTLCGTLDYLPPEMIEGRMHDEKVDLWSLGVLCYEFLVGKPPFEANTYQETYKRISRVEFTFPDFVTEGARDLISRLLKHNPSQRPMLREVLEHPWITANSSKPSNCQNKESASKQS

PIM1 kinase = PIM1 kinase (Homo sapiens, UniProt P11309)
Sequence of PIM1 kinase (P11309 whole entry): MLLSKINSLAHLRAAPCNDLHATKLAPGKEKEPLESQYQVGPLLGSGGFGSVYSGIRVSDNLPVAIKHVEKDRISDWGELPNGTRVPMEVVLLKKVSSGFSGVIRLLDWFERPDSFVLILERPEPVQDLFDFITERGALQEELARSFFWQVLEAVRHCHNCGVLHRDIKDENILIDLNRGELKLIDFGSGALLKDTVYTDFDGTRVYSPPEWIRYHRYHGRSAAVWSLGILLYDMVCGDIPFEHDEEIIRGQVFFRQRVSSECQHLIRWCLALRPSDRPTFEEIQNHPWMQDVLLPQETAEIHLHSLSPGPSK

Aurora B kinase = target: T2, Aurora B kinase (Homo sapiens, UniProt Q96GD4)
T2 construct: gene AURKB
T2 sequence (Q96GD4 whole entry): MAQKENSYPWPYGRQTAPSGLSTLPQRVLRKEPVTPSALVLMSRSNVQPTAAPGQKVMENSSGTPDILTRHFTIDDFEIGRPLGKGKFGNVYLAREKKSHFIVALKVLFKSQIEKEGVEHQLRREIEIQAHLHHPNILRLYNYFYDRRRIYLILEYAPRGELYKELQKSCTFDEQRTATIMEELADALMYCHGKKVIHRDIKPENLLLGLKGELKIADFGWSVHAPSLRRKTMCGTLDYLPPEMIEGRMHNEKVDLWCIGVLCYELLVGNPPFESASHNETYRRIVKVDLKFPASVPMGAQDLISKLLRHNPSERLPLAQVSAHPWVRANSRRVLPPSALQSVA

Ki (Aurora A kinase): 0.116 µM
Ki (PIM1 kinase): 0.522 µM
Ki (Aurora B kinase): 1.82 µM
Structure (SMILES): Cc1cc(/C=C/C#N)cc(C)c1Nc1ccnc(Nc2ccc(C#N)cc2)n1 [rilpivirine, 4-[[4-[[4-[(1E)-2-cyanoethenyl]-2,6-dimethylphenyl]amino]-2-pyrimidinyl]amino]benzonitrile]
